We go through one compound from patent publication US12410153B2, “Compounds, compositions and methods” (Avalo Therapeutics, Inc., priority 2014, dated 2025).

Structures are written as SMILES.

One data set concerns the target hERG current (Homo sapiens, UniProt Q12809). Put plainly: In vitro hERG assay. The data set is classed as cell-based. The protocol:
The potential effects of Form II of Compound (I) on the functions of the nervous system, cardiovascular system, and respiratory system were evaluated in a battery of safety pharmacology studies that included an in vitro human ether-a-go-go-related gene (hERG) assay and in vivo studies in rats, dogs, and monkeys. CNS effects were tested in rats at single doses at 15, 75, and 225 mg/kg.
Effects of Form II on the cardiovascular system were tested in several studies. Potential QTc effects were tested in vitro and in vivo.
(In general: The hERG channel carries a current that helps repolarise heart muscle cells.)

The target in data set [1] is GluN1a/GluN2B human receptors (Homo sapiens, UniProt Q05586+Q13224). Put plainly: Radioligand binding, L(tk−) cell membranes expressing human GluN1a/GluN2B. Set-up: expressed in transfected cells; host or cells: L(tk−) cells (mouse fibroblasts), dexamethasone-inducible expression. The settings on record: geometric mean.
GluN1a/GluN2B human receptors, sequence (Q13224 27-1484, other chains not shown): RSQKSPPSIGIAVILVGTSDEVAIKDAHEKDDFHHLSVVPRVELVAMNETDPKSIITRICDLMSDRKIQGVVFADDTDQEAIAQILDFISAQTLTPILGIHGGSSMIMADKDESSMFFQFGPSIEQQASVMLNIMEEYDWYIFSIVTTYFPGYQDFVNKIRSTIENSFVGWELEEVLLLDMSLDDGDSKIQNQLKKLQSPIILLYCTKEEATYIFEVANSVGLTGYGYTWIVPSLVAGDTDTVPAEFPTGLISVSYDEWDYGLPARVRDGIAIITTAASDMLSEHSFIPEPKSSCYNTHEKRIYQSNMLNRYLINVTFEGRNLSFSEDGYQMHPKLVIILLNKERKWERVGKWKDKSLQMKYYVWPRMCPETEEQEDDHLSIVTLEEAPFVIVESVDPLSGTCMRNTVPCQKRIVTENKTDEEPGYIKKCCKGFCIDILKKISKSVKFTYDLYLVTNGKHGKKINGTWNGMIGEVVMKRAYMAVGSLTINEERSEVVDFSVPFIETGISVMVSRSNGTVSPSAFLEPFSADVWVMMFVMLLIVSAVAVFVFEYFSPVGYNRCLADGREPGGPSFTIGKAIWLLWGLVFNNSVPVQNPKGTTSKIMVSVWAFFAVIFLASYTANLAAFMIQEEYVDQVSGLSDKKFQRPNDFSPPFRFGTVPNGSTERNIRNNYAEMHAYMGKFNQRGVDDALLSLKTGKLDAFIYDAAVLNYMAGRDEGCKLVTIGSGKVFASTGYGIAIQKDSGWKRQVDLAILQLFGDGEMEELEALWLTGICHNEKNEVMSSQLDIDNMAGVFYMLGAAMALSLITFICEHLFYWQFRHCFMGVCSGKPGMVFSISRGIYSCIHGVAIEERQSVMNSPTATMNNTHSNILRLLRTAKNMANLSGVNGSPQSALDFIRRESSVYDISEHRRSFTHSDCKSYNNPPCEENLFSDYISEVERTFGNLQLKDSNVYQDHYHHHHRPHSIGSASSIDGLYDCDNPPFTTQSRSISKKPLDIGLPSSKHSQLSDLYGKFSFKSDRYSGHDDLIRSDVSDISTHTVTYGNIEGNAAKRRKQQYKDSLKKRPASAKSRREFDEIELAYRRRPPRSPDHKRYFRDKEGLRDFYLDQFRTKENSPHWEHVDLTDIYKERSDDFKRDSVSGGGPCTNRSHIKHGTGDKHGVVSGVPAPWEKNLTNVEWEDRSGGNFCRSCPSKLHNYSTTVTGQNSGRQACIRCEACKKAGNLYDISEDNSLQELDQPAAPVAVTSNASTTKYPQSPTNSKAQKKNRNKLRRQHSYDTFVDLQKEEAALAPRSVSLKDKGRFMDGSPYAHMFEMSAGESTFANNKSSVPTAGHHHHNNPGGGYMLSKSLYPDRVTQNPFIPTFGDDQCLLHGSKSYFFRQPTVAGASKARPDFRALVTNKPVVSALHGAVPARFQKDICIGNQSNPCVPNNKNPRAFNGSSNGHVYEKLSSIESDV
Data set [2] has as its target T1, NMDA-GluN2B receptors, rhesus monkey frontal cortex homogenate (Macaca mulatta, UniProt F6T8S6).
T1 construct: frontal cortex homogenate (dog and rhesus monkey); from tissue; host or cells: rhesus monkey frontal cortex homogenate
Put plainly: Radioligand binding, rhesus frontal cortex homogenate. The settings on record: geometric mean. The protocol:
Radioligand binding assays were performed at room temperature (or 37° C.) in 96-well microtiter plates with a final assay volume of […] in 20 mM HEPES buffer (pH 7.4) containing 150 mM NaCl. […] Nonspecific binding was assessed using N-(3-chlorobenzyl)-4-iodobenzimidamide (final concentration, 10 μM), and total binding was measured by addition of DMSO (final concentration, 2%). L(tk−) cell membranes expressing human GluN1a/GluN2B receptors (final concentration, 40 pM) and [^3H]-[(E)-N1-(2-methoxybenzyl)-cinnamamidine] (final concentration, 1 nM) were added to all wells of the microtiter plate. After 3 h (24 h or 48 h) of incubation at room temperature (or 37° C.), samples were filtered through Packard GF/B filters (presoaked in 0.05% polyethylenimine [PEI; Sigma P-3143]) and washed 10 times with 1 mL of cold 20 mM HEPES buffer per wash. After vacuum drying of the filter plates, 50 μL of Packard Microscint-20 was added and the bound radioactivity determined in a Packard TopCount.
Analogous binding experiments, to those described above for the cloned human receptor expressed in L(tk−) cells, were also performed using whole brain homogenate (rat), frontal cortex homogenate (dog and rhesus monkey), and temporal cortex homogenate (human).

Data set [3] in a line: Single-dose pharmacokinetics in rats (oral and IV). The data set is classed as in vivo. The note with it: male, Sprague-Dawley, rat, plasma. Here is the method:
Male Sprague-Dawley rats (N=8; N=4 oral and N=4 intravenous [IV]) weighing approximately 250-280 g and male rhesus monkeys (N=4, crossover) weighing 6.0-8.8 kg were used for the PK studies. In rats, the IV dose of crystalline Form II of Compound (I) at 2 mg/kg (0.4 mL/kg) was administered as a bolus and the oral dose was administered by gavage at 15 mg/kg (5 mL/kg). In monkeys, the IV dose of Form II at 2 mg/kg (0.1 mL/kg) was administered as a slow bolus and the oral dose was administered via nasogastric tube at 15 mg/kg (5 mL/kg). Blood samples were serially collected pre-dose, and at 0.083 (IV only), 0.25, 0.50, 1, 2, 4, 6, 8, 10, 24, 48, 72, and 96 h post-dose. The concentrations of Form II in rat and monkey plasma were determined by LC/MS/MS analysis in the positive ion mode using a heated nebulizer interface. The lower limit of quantitation was 2.5 ng/mL (approximately 0.00697 μM).

A short description of data set [4]: Respiratory effects in anesthetized dogs, 5-min IV infusion. The note with it: dog, plasma, 3 mg/kg. The data set is classed as in vivo, dog. The protocol: (§1) Respiratory effects were investigated in rats and dogs. […] Mean Form II plasma concentration was approximately 30 μM (10600 ng/mL) at the end of infusion and approximately 4 μM (1250 ng/mL) at 60 min post-infusion.

In the next data set the test system is dogs. The data set is described as above. The note with it: 3 mg/kg, monitored 60 min. The data set is classed as in vivo, dog. The protocol:
as §1

T1 sequence (F6T8S6 29-1484): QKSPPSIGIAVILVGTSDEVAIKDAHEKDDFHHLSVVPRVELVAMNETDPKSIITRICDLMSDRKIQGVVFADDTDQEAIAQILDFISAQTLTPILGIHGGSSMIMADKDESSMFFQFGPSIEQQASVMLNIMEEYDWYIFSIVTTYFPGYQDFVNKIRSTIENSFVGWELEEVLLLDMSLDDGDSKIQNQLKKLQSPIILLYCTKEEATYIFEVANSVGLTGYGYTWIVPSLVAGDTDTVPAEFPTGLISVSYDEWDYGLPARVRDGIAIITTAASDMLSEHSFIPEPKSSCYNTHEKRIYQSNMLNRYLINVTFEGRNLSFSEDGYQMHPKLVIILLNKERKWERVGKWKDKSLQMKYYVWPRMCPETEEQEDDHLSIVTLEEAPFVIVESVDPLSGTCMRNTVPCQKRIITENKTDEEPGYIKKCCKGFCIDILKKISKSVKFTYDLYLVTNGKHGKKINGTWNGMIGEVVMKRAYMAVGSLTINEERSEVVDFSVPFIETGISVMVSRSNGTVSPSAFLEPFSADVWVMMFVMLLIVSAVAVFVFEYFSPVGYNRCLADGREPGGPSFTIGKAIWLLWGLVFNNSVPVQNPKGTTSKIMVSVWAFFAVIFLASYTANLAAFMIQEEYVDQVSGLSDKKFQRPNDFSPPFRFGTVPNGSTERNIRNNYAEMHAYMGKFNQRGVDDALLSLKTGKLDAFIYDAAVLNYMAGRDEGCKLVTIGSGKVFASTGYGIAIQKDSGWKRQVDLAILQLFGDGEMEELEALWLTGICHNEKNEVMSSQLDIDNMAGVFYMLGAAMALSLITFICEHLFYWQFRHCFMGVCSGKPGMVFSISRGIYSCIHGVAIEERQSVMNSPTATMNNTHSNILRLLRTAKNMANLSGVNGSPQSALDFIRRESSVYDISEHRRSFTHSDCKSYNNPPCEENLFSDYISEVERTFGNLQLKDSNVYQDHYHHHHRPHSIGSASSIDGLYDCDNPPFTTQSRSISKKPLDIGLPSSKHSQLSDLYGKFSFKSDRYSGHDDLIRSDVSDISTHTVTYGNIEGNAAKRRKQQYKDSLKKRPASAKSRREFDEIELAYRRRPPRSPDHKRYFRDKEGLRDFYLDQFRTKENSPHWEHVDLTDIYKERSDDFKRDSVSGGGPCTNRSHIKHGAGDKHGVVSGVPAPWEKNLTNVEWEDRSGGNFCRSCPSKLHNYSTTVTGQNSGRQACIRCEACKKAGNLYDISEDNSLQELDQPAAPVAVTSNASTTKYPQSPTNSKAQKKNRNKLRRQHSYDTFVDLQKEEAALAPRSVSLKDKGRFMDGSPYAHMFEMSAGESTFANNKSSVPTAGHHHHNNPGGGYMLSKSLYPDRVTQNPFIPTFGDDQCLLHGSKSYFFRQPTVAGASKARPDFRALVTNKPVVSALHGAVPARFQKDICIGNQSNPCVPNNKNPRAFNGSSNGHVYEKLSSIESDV
hERG current, sequence (Q12809 whole entry): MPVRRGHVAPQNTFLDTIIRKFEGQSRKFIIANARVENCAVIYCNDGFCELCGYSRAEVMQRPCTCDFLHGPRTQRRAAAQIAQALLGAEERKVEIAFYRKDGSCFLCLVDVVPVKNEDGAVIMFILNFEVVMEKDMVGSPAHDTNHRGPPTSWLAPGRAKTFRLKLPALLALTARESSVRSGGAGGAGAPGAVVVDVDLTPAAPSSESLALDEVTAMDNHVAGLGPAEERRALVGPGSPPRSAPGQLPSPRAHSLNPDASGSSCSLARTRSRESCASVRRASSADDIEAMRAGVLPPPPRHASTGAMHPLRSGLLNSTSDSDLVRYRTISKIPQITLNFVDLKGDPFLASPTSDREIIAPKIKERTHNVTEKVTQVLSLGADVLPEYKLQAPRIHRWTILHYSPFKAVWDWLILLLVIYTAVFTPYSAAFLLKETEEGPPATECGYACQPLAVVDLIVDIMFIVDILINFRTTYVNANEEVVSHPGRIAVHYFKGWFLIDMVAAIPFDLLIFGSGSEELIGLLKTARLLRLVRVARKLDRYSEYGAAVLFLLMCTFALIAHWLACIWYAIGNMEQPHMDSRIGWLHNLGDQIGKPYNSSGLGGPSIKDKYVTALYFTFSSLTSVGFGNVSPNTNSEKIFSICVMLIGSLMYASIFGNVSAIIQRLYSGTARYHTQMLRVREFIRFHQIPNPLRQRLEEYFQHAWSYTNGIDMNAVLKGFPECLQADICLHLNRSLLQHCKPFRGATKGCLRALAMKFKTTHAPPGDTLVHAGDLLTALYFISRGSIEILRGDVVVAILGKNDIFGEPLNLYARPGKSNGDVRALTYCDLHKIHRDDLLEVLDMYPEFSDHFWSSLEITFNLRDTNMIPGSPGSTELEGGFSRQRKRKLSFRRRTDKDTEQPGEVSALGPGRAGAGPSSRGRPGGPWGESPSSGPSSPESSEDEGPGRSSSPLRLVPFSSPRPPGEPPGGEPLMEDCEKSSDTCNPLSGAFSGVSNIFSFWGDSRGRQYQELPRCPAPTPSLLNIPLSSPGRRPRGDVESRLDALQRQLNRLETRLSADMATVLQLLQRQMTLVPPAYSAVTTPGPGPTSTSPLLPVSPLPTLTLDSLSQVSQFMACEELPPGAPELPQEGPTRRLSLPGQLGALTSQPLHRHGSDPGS

As to `Cc1ccc(COC(=O)N2CC[C@H](CNc3ncccn3)[C@H](F)C2)cc1` [Form II, 4-methylbenzyl (3S, 4R)-3-fluoro-4-[(pyrimidin-2-ylamino)methyl] piperidine-1-carboxylate], the half-inhibitory concentration (IC50) on hERG current was ~13000 nM. The inhibitory constant (Ki) in data set [1] (4° C.) stood at 1.8 nM; in data set [1] (37° C.), 31 nM; in data set [1] (room temp.), 4.9 nM; in data set [2] (37° C.) it was 14 nM; in data set [2] (room temp.), 3.1 nM. The compound also had a bioavailability in data set [3] (15 mg/kg, dose-normalized AUC0-∞ after IV and PO, non-crossover) of 60%. The total exposure AUC(0-inf) in data set [3] (IV 2 mg/kg, mean (S.D.)) was found to be 3.31 µM·h; in data set [3] (PO 15 mg/kg, mean (S.D.)), 14.9 µM·h. The compound further gave a half-life in data set [3] (IV 2 mg/kg, mean (S.D.)) of 1.7 h. In addition, the clearance in data set [3] (IV 2 mg/kg, mean (S.D.), read-out: CLp) was determined as 28.4 mL/min/kg. Further, the Vd in data set [3] (IV 2 mg/kg, mean (S.D.), read-out: Vdss) was 3.1 L/kg. In addition, in data set [3] (PO 15 mg/kg, mean (S.D.)), the peak level (Cmax) was 5.9 µM. Besides, the concentration at 60 min in data set [4] (read-out: mean plasma concentration at 60 min post-infusion) was ~4 µM. The concentration at 5 min in data set [4] (read-out: mean plasma concentration at the end of infusion) is ~30 µM. Also, the “respiratory parameters and blood pH, pCO2, pO2” value in the data set with dogs was “did not affect”.

As a reminder, the IC50 is the concentration needed to halve the response being measured. The term Ki denotes the dissociation constant of the complex between target and ligand, obtained from inhibition or displacement. For orientation: bioavailability means dose-corrected exposure relative to a reference, in per cent. What is called AUC(0-inf) is total exposure, with the tail of the curve extrapolated. The term half-life denotes how long it takes for the measured level to halve. As a reminder, the Cmax is the maximum level reached in the sampled fluid or tissue.
